The text below walks through data of article PMC3366674, “Epigenetic Tailoring for the Production of Anti-Infective Cytosporones from the Marine Fungus Leucostoma persoonii” (Marine Drugs, 2012).

Converted amounts (≈) assume the structure as drawn. Read-outs that look alike come from different tables or passages of the source. Some results are limits rather than exact numbers.

One experiment relates to A549 cells. Kind of experiment: A549 cytotoxicity assay (CellTiter 96 Aqueous One). The format is cell-based, human. To be noted: 72 h incubation. Here is the method:
Cell line A549 (adenocarcinomic human alveolar epithelial cells) was cultured in F-12K Nutrient Mixture (Kaighn’s Modification) media containing L-glutamine, supplemented with 10% fetal bovine serum and 1% penicillin-streptomycin. For the assay, the A549 cells were diluted to 1.33 × 10^5 cells/mL in DMEM F12 media with L-glutamine, without HEPES or phenol red, and supplemented with 2% fetal bovine serum and 1% penicillin-streptomycin. The A549 cells were dispensed into 96 well plates at a volume of 90 µL/well giving a final concentration of 12,000 cells per well. Plates were incubated for 24 h at 37 °C and 5% CO2. After 24 h, 10 µL of the test compounds at concentrations of 0.4, 1.2, 3.7, 11, 33.3 and 100 µg/mL were added to the 96 well plates containing A549 cells followed by 72 h of incubation at 37 °C and 5% CO2. A Beckman-Coulter Biomek NX 3000 was used to dispense cells and dispense test compounds to the 96 well plates. Positive (bronopol) and negative (blank DMSO) controls were included on each assay plate. After the incubation period, cell proliferation was assessed using Promega’s CellTiter 96 Aqueous One Solution Cell Proliferation Assay reagent. Into each well 20 µL of reagent was added followed by incubation for 3 h at 37 °C and 5% CO2. A Biotek plate reader was used to read absorbance at 490 nm and IC50 values were determined for each test compound.

The subject of a further experiment is MRSA biofilm. The experiment is described as follows: Minimum biofilm eradication count (MBEC) biofilm assay. The class given is cell-based, Staphylococcus aureus. The note with it: MRSA USA100 biofilm; for MRSA MBEC90: 24 h exposure. How it is done:
(§1) The strain of MRSA used in our bioassays is a hospital-associated clone from the CDC USA 100 lineage. […] It is thus deemed an extensively drug resistant strain, and something of a worst-case scenario MRSA isolate.
We performed minimum biofilm eradication count (MBEC) assays on cytosporones to assess their activity towards this form of bacterial growth. These were performed by generating S. aureus biofilms in a 96-well microtitre plate, as previously described. Once established, biofilm cultures were exposed to fresh growth media containing a range of concentrations of 15, 20, 25 and 50 µg/mL of the cytosporones. Control analyses were performed in parallel containing no compound. Cultures were incubated, covered, for 24 h at 37 °C without shaking. After this time the culture media was aseptically aspirated, and the wells rinsed twice with PBS to remove non-adherent cells. Fresh PBS (100 µL) was then added to the wells, and mixed by vigorous pipetting, to dislodge the biofilm matrix from the surface of the wells. These samples were serially diluted, plated on TSA, with cells enumerated after overnight incubation at 37 °C. Each of the above analyses was performed with 3 biological replicates, each of which also had 3 technical replicates. By comparing CFU/mL against control, no-exposed cultures, we were able to obtain a quantitative assessment of the impact of cytosporones on S. aureus biofilms.

The subject of the next experiment is Plasmodium falciparum. Kind of experiment: Malaria assay (luciferase-reporter Plasmodium falciparum). The format is cell-based. The note with it: for activity toward Plasmodium falciparum: levels tested up to 10 µg/mL. How it is done:
Mangrove endophytes isolated as described above were subject to small-scale cultivation on Sabouraud dextrose agar (SDA), freeze dried, then extracted with methanol. Extracts at a concentration of 30 mg/mL were screened in a luciferase-reporter Plasmodium falciparum assay.
Malaria screening was done as previously reported.

Experiment [1] deals with methicillin-resistant Staphylococcus aureus (MRSA) USA100. The experiment is described as follows: Microtiter MIC determination against MRSA USA100. The note with it: for MIC: Staphylococcus aureus; for activity against MRSA: pure compound. The class given is cell-based. How it is done: as §1
(§2) The minimum inhibitory concentration (MIC) of the pure compounds was determined as follows. Broth cultures were prepared for S. aureus strains as described above. These were diluted 1:1000 in fresh Trypticase Soy Broth (TSB) and 200 µL was applied to the wells of a sterile 96-well plate. Compounds (in DMSO) were added to wells at concentrations ranging from 1, 10, 25, 50 to 100 µg/mL in a volume no greater than 5 µL. Concentrations were adjusted to lower levels if applicable. Samples were mixed by pipetting and the plates were incubated at 37 °C overnight. MICs were determined by visual inspection for the minimum concentration of compound producing no bacterial growth, as determined by a lack of turbidity. Assays were repeated three times in order to verify the MIC determinations. […] Minimum bactericidal concentration (MBC) counts were performed on the MIC cultures by removing the growth media from each well the following morning, serially diluting, and plating onto Trypticase Soy Agar (TSA). These were incubated overnight at 37 °C and the bacterial loads of each well were determined by enumeration. Percentage killing was determined by the comparison of drug-containing wells to control wells where no compound was added.

For experiment [2] the test system is unchanged. Kind of experiment: Minimum bactericidal concentration (MBC) counts on MIC cultures. The class given is cell-based. The note with it: for fold reduction in bacterial viability at MIC: MRSA USA100, at MIC; for MBC: Staphylococcus aureus, MRSA USA100, read-out: MRSA MBC90. Here is the method:
as §1, §2

The subject of experiment [3] is methicillin-sensitive S. aureus (MSSA). Kind of experiment: Microtiter MIC determination against MSSA. The format is cell-based. To be noted: Staphylococcus aureus, methicillin-sensitive S. aureus strains. How it is done:
as §2

The mark [4] stands for this setting: MRSA USA100, overnight 37 °C, visual turbidity, read-out: MRSA MIC.

The IC50 is the concentration needed to halve the response being measured. Higher therefore signals weaker potency in that assay. By IC90 is commonly meant the concentration needed for an effect of 90%. As usually defined, the MIC is the lowest concentration that inhibits growth of the organism. `CCCCCCCC(=O)c1c(O)cc(O)cc1CC(=O)OCC` [Cytosporone B, cytosporone B] showed an IC50 in the experiment on A549 cells (Homo sapiens) of 170 µM. This molecule yielded an IC90 in the experiment with A549 cells (Homo sapiens, A549, 72 h) of 190 µM. Also, in the experiment on MRSA biofilm, the “MRSA MBEC90” value is 110 µM and the “fold reduction in biofilm (MBEC assay) at MIC” value turned out to be 2 fold. Moreover, the “fold reduction in biofilm formation at twice the MIC” value in the experiment on MRSA biofilm (at twice the MIC) worked out at 168 fold. Also, the “activity toward Plasmodium falciparum” value in the experiment on Plasmodium falciparum was “inactive”. The MIC in experiment [1] (setting [4]) was found to be 78 µM. Also, in experiment [2], the “fold reduction in bacterial viability at MIC” value stood at 4.2 fold and the MBC came to 93 µM (≈ 30 µg/mL). Also, in experiment [2] (MRSA USA100, at twice the MIC), the “bacterial killing at twice the MIC” value was “complete killing of the bacteria”.
In turn, `CCCCCCCC1OC(=O)Cc2cc(O)cc(O)c21` (stereo not shown) [Cytosporone C, cytosporone C] showed an IC50 in the experiment with A549 cells (Homo sapiens) of 690 µM. For the same molecule, in the experiment with A549 cells (Homo sapiens, A549, 72 h), it took 840 µM to reach the 90% level (IC90). Further, the “activity toward Plasmodium falciparum” value with Plasmodium falciparum was “inactive”. In experiment [1] (setting [4]), the MIC is above 358 µM. Further, the “activity against MRSA” value in experiment [1] was “inactive”.
As for `CCCCCCCC1OC(=O)c2cc(O)c(O)c(O)c21` (stereo not shown) [Cytosporone E, cytosporone E], the IC90 in the experiment on A549 cells (listed as Cytosporone E (3)) came to 440 µM; with A549 cells (Homo sapiens, A549, 72 h) it was 437 µM; with Plasmodium falciparum (Plasmodium falciparum, read-out: IC90 toward Plasmodium falciparum), 13 µM. This molecule also gave an IC50 in the experiment on A549 cells (Homo sapiens) of 280 µM. In the experiment on MRSA biofilm, the “MRSA MBEC90” value is 39 µM. The “fold reduction in biofilm (MBEC assay) at MIC” value with MRSA biofilm turned out to be 183 fold. Also, the MIC in experiment [1] (setting [4]) stood at 72 µM; in experiment [3] it was 72 µM (≈ 20.2 µg/mL). Besides, in experiment [2], the “fold reduction in bacterial viability at MIC” value is reported as above 5000 fold. Moreover, in experiment [2], the MBC turned out to be 45 µM (≈ 12.6 µg/mL).
On to `CCCCCCCC(=O)c1c(O)cc(O)cc1CC(=O)OCC(O)CO` (stereo not shown) [Cytosporone R, cytosporone R], for which the MIC in experiment [1] (setting [4]) amounted to 503 µM. Further, the “activity against MRSA” value in experiment [1] is “inactive”.
Consider `CN[C@H](CC(C)C)C(=O)N[C@H]1C(=O)N[C@@H](CC(N)=O)C(=O)N[C@H]2C(=O)N[C@H]3C(=O)N[C@H](C(=O)N[C@H](C(=O)O)c4cc(O)cc(O)c4-c4cc3ccc4O)[C@H](O)c3ccc(c(Cl)c3)Oc3cc2cc(c3O[C@@H]2O[C@H](CO)[C@@H](O)[C@H](O)[C@H]2O[C@H]2C[C@](C)(N)[C@H](O)[C@H](C)O2)Oc2ccc(cc2Cl)[C@H]1O` [vancomycin, reference compound], for which the MIC in experiment [1] (read-out: MIC of positive control) came out at 1 µg/mL.
